Earlier results on three compounds are cited in publication PMC12177174 (iScience, 2025).

Read-outs that look alike come from different tables or passages of the source.

The conditions of series [1]: cited from earlier work.
Another series relates to Axin2 mRNA. The following applies: cited from earlier work.
For series [2] the following is noted: 20 patients, median 22 weeks treatment; cited from earlier work.
Another series concerns bone mineral density. The following applies: cited from earlier work.
The subject of another series is skin fibrosis. The note with it: cited from earlier work.
For the next series, the system named is heart repair. The note with it: cited from earlier work.
The conditions of series [3]: cited from earlier work. This is another data set of the same source.
A further series has as its system tumor. The note with it: cited from earlier work.
A further series relates to tumor cell proliferation. The following applies: cited from earlier work.

Take `Cc1cc(-c2ncc(CC(=O)Nc3ccc(-c4cnccn4)cn3)cc2C)ccn1` [WNT974]: the participants reporting dysgeusia in series [1] is at most 50%. For the same compound, the “participants with reduced tumor size” value in series [1] (various advanced cancers) is 74%. For the same compound, the “mean reduction in AXIN2 mRNA levels in skin biopsies” value with Axin2 mRNA was 50%–60%. Further, the “patients who developed fragility fractures” value in [2] is given as 45%. In the series on bone mineral density, the bone mineral density result is listed as “caused loss of bone mineral density”. Also, the skin fibrosis entry in the series on skin fibrosis was “prevented progression of skin fibrosis”. For the same compound, the “heart repair following cardiac injury” value in the series on heart repair is “promoted heart repair”.

`Cn1c(=O)c2c(ncn2CC(=O)Nc2ccc(-c3ccccc3)nn2)n(C)c1=O` [ETC-159]: the participants reporting dysgeusia in [3] is at most 50%. For the same compound, the “circulating CTX-1 levels” value in series [3] (patients with advanced cancer) was “increased circulating CTX-1 levels”. For the same compound, the bone mineral density result with bone mineral density was “caused loss of bone mineral density”. Further, the tumor response result with tumor was “induces tumor regression”.

Regarding `Cc1c(-c2ccnc(C(F)(F)F)c2)ncn1CC(=O)Nc1ccc(-c2cnccn2)cn1` [RXC004], the tumor cell proliferation result with tumor cell proliferation is “inhibits tumor cell proliferation”.
